One test deals with Pythium glaminicola. Particulars: for Preventive value: 10 ml soil drench, from percentage of onset area after 2 weeks.
For test [1], the system named is Erysiphe graminis f.sp. hordei. Conditions: Blumeria graminis, in Hordeum vulgare, 168 h, read-out: Preventive value.
Experimental: Test plants (barley, variety: Akashinriki) were seeded and grown until the one leaf stage. D-tagatose and fungicide were diluted to 5000 ppm and the concentrations listed in table 21, respectively, with distilled water and 10 ml of the dilution was sprayed thoroughly on the plants. Three days after spraying, a condia suspension of Erysiphe graminis f.sp. hordei was inoculated by spraying on test plants. 7 days after inoculation the disease severity of the test plants was observed and the effectiveness of test sample was judged.
Another test has as its system Plasmopara viticola. Particulars: Plasmopara viticola, 168 h, read-out: Preventive value.
The subject of test [2] is Pythium aphanidermatum. The test can be described thus: cucumber damping-off, pot test: soil drench of D-tagatose combined with fungicides. Conditions: Pythium aphanidermatum, in Cucumis sativus, soil, 336 h, read-out: Preventive value.
Experimental: Five seeds of test plants (cucumber, variety: Sagami hanpaku) were sowed in a pot (5×5 cm), which contains infested soil with Pythium aphanidermatum (mycelium 100 g/1 L soil) and was covered with soil. D-Tagatose was diluted to 5000 ppm and the fungicides were diluted to the concentrations listed in table 18, with distilled water. The pot was drenched with 10 ml of the dilution. After 2 weeks, the disease severity of the test plants was observed and the effectiveness of test sample was judged. Tests were carried out in triplicate using 5 plants for each test set and the preventive value was calculated from the germination rate.
The test system of the next test is Sphaerotheca fuliginea. Particulars: Podosphaera fuliginea, in Cucumis sativus, 168 h, read-out: Preventive value.
The subject of test [3] is Pythium aphanidermatum. Conditions: for Preventive value: 10 ml soil drench, from germination rate after 2 weeks.
Experimental: Five seeds of test plants (cucumber, variety: Sagami hanpaku) were sowed in a pot (5×5 cm), which contains infested soil with Pythium aphanidermatum (mycelium 100 g/1 L soil) and the seeds were covered with the soil. […] After 2 weeks, the disease severity of the test plants was observed and the effectiveness of test sample was judged. Tests were carried out in triplicate using 5 plants for each test set and the preventive value was calculated from the germination rate.

The values below come from US20110281807A1, “PLANT DISEASE CONTROL AGENT COMPRISING D-TAGATOSE AS ACTIVE INGREDIENT, AND PLANT DISEASE CONTROL METHOD” (NATIONAL UNIVERSITY CORPORATION KAGAWA UNIVERSITY, priority 2008, published 2011).

Like-named read-outs stand apart in the source and are kept apart here.

Experimental for Plasmopara viticola: Test plants (variety: Neo Muscat) were seeded and grown until three leaves. D-Tagatose was diluted to 5000 ppm and the fungicides were diluted to the concentrations listed in table 16, with distilled water, and 10 ml of the dilution was sprayed on the plants. Three days after the spraying of the dilution, the plants were infected by spraying a sporangium suspension of Plasmopara viticola containing 1×10^3/ml and then put for 16 hours in an inoculation chamber (20° C. to 23° C.) to promote disease. The disease severity of the test plants was observed 7 days after inoculation, and the effectiveness of test sample was judged.
Experimental for Pythium glaminicola: Four germinated rice seeds (variety: Koshihikari) were sowed in a pot (5×5 cm), which contains infected soil with Pythium glaminicola (mycelium 100 g/1 L soil). The pot was drenched with 10 ml of D-tagatose dilution and the seeds were covered with soil. After 2 weeks, the disease severity of the test plants per rice seedling in 25 cm^2 was observed and the effectiveness of test sample was judged. Tests were carried out in duplicate and the preventive value was calculated from percentage of onset area.
Experimental for Sphaerotheca fuliginea: Test plants (cucumber, variety: Sagami hanpaku) were seeded and grown until the one true leaf stage. D-Tagatose and fungicide were diluted to 5000 ppm and the concentrations listed in table 20, respectively, with distilled water and 10 ml of the dilution was sprayed thoroughly on the plants. Three days after spraying, a condia suspension containing of Sphaerotheca fuliginea were inoculated by spraying on test plants.
Seven days after inoculation the disease severity of the test plants was observed and the effectiveness of test sample was judged.

On to `O=C(CO)[C@@H](O)[C@@H](O)[C@H](O)CO` [D-Tagatose, D-tagatose], for which the Preventive value in the test with Pythium glaminicola (10000 ppm) was 77.3; with Pythium glaminicola (50000 ppm), 96.2; with Pythium aphanidermatum [3] (10000 ppm), 70.0; with Pythium aphanidermatum [3] (50000 ppm) it was 92.5. For the same compound, the effectiveness in words entry in the test with Pythium glaminicola (soil drench) and with Pythium aphanidermatum [3] (soil drench) was “effective enough” each time. For the same compound, the pest or weed control at 5000 ppm in test [1] stood at 50%; in the test on Plasmopara viticola, 17%; in the test on Pythium aphanidermatum [2], 33%; in the test on Sphaerotheca fuliginea it was 40%. Moreover, the pest or weed control at 10000 ppm in test [1] was found to be 73%; in the test with Plasmopara viticola it was 67%; in the test on Pythium aphanidermatum [2], 83%; in the test on Sphaerotheca fuliginea, 93%.
